Measurements as given in ChEMBL document CHEMBL5726787, “Compounds, compositions and methods” (2018).
pIC50: −log10 of the molar value.

Biological target: T1, Receptor-interacting serine/threonine-protein kinase 1 (Homo sapiens, UniProt Q13546)
T1 sequence (Q13546 whole entry): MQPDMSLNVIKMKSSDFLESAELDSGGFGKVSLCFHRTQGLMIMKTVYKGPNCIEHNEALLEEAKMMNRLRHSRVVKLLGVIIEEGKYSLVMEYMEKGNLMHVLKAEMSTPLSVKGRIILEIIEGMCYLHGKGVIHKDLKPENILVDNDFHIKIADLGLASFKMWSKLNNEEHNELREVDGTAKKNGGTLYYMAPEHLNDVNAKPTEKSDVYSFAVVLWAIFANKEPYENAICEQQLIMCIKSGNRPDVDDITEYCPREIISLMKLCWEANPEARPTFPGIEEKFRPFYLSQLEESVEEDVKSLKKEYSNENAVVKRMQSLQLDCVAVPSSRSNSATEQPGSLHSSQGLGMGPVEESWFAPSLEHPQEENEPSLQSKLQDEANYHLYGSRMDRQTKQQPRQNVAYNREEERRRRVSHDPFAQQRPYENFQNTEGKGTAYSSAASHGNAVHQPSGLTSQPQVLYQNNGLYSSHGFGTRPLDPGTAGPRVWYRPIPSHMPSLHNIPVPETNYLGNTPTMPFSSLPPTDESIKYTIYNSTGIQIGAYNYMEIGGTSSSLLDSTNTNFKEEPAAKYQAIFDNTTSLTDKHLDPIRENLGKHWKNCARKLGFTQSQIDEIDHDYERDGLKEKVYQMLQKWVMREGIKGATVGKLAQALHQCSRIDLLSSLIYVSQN
Assay: […]: Test compounds were diluted in DMSO and 0.1 μL of solution was dispensed to each well of a 384-well white solid microplate. The assay buffer was 50 mM HEPES pH 7.5, 50 mM NaCl, 30 mM MgCl2. The buffer was supplemented with 0.02% CHAPS, 0.01% of Pluronic F127, 0.1 mg/mL BSA and 1 mM DTT. MnCl2, 5 mM, was included in the assay buffer on the day of the experiment. […] 5 μL of enzyme and 5 μL of ATP were added to the plate at twice the final assay concentration and incubated at room temperature for 3 hours. Following this reaction, 10 μL of ADP-Glo reagent (Promega) was added to each well and incubated for 40 min at room temperature. This stops the kinase reaction and depletes any remaining ATP. 20 μL of ADP-Glo detection reagent was then added to each well and incubated at room temperature for at least 15 minutes. The detection reagent converts ADP to ATP and introduces luciferase and luciferin to detect ATP. The luminescence is then measured with the Envision (PerkinElmer) plate reader. Test compound inhibition was expressed as percent inhibition of internal assay controls. For concentration response curves, normalized data is fit and IC50 determined using XL-fit (IDBS) for Excel. The IC50 were averaged to determine a mean value, for a minimum of two independent experiments.

pIC50 | SMILES
6.00 to 10.00 | CN1C(=O)C(NC(=O)c2nnc(Cc3ccccc3)[nH]2)C[C@H](F)c2ccccc21 (some centres not stated)
6.00 to 10.00 | CN1C(=O)C(NC(=O)c2nnc(Cc3ccccc3)[nH]2)C[C@@H](F)c2ccccc21 (some centres not stated)
